In patent US20240400577A1, “MODULATORS OF PROTEIN KINASES” (VIBLIOME THERAPEUTICS, LLC, priority 2021, published 2024):

Biological target: T1, DDR1 (Homo sapiens, UniProt Q08345)
T1 construct: purchased Nanosyn (contract screening)
Assay: Kinase panel enzymatic inhibition assay (Nanosyn)
Type: biochemical
Settings: ATP at Km; 30-minute pre-incubation; read-out: kinase inhibition in terms of IC50, DDR1
In short: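 Enzymatic inhibition measured within a panel of at least 300 kinases, using a validated format such as Caliper LabChip mobility shift, ADP detection or time-resolved fluorescence. Compounds tested at 5 μM with ATP at each kinase's Km, after a 30-minute pre-incubation. Values given as percent inhibition or IC50.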

T1 sequence (Q08345 19-913): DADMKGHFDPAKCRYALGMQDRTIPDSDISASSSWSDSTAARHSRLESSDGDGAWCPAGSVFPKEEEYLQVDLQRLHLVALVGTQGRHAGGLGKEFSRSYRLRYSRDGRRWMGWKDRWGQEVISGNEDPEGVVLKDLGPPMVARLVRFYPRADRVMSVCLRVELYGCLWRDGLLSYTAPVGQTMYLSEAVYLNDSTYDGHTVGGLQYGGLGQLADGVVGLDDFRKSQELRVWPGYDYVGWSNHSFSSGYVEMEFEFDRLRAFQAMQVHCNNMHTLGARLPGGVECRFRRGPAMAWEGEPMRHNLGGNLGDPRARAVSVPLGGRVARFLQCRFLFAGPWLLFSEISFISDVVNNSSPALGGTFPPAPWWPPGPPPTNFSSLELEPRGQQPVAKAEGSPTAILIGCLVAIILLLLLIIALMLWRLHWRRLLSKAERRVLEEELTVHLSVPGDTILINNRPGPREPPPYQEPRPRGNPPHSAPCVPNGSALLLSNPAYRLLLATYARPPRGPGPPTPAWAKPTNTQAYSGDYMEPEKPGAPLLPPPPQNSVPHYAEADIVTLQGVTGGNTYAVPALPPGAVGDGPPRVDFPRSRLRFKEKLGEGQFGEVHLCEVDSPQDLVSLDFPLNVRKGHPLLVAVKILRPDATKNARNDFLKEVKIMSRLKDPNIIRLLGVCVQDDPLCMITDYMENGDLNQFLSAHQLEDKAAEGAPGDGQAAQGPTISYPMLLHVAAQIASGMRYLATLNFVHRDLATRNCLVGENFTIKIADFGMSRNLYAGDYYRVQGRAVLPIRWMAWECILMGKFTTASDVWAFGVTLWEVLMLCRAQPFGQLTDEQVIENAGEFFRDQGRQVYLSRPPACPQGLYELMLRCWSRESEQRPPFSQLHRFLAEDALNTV

COc1cc2nccc(Oc3ccc(NC(=O)c4cc(S(C)(=O)=O)n(-c5ccc(F)cc5)n4)c(F)c3)c2cc1OC [Ex71, N-(4-((6,7-dimethoxyquinolin-4-yl)oxy)-2-fluorophenyl)-1-(4-fluorophenyl)-5-(methylsulfonyl)-1H-pyrazole-3-carboxamide]
IC50: < 500 nM

COc1cc2nccc(Oc3ccc(NC(=O)c4cc(S(C)(=O)=O)n(-c5ccc(F)cc5)n4)cc3F)c2cc1OC [Ex73, N-(4-((6,7-dimethoxyquinolin-4-yl)oxy)-3-fluorophenyl)-1-(4-fluorophenyl)-5-(methylsulfonyl)-1H-pyrazole-3-carboxamide]
IC50: < 500 nM
